Assay results reported in patent publication US20250059188A1, “ARYLSULPHONAMIDE COMPOUNDS” (Anaxis Pharma Pty Ltd, priority 2021, published 2025).

What was measured:
[1] = system: U937 human histiocytic leukemia cell line; assay: Inhibition of TSQ induced necroptosis in U937 cells (CellTitre-Glo); conditions: Homo sapiens, U-937, TSQ cocktail (TNF, Smac mimetic, Q-VD-OPh), 48 hours, read-out: Inhibition of TSQ-induced necroptosis (IC50 cell-based assay)
Method in brief: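 Necroptosis was induced with TNF-Fc (100 ng/ml), Smac mimetic (500 nM) and Q-VD-OPh (10 μM) in 20000 U937 cells/well exposed to a 10-point, 3-fold compound series (top 36 μM, 0.3% DMSO). ATP luminescence read after 48 h; 4-parameter fit gave IC50. Parallel TSQ-free wells assessed compound toxicity.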

human MLKL (full length) = human MLKL (full length) (Homo sapiens (Human), UniProt Q8NB16); assay: KINOMEscan binding assay, human MLKL (full length); conditions: equilibrium dissociation constant
human MLKL (full length), sequence (Q8NB16 whole entry): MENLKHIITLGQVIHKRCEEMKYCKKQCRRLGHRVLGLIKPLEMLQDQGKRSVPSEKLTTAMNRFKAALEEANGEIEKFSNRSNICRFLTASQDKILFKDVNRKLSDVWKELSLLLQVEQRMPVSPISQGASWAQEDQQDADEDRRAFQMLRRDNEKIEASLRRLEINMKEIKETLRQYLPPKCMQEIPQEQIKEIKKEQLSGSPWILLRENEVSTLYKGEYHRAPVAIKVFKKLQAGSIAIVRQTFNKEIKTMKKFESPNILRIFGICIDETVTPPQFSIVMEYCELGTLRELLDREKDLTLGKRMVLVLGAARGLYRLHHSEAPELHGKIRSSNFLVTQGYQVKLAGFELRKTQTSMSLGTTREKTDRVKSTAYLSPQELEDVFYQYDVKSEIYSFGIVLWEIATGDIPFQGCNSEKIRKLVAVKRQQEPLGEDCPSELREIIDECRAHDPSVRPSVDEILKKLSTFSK
Method in brief: (§1)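 Assay principle: test compound competes with immobilized bead ligand for kinase; kinase retained, then eluted, is counted by qPCR. Conditions were 1% DMSO final with 11 compound concentrations in 3-fold steps, 30,000 nM top for most. The Hill equation with slope −1 gave Kd.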

human RIPK3 = human RIPK3 (Homo sapiens (Human), UniProt Q9Y572); assay: KINOMEscan binding assay, human RIPK3; conditions: equilibrium dissociation constant
human RIPK3, sequence (Q9Y572 whole entry): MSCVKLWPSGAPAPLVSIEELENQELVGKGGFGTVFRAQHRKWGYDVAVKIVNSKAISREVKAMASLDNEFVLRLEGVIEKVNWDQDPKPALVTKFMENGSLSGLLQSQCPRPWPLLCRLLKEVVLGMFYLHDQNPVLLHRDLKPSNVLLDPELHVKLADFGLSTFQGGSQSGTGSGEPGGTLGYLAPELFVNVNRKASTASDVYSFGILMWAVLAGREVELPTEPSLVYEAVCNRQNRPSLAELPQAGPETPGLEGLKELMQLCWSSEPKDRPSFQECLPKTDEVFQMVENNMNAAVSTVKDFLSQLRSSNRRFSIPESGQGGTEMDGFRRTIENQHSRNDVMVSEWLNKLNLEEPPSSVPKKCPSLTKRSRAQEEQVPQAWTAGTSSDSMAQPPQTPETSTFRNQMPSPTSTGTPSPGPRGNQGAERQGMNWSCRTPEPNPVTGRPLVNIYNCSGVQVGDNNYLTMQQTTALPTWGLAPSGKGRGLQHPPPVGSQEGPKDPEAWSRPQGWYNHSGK
Method in brief: as §1

human RIPK1 = human RIPK1 (Homo sapiens (Human), UniProt Q13546); assay: KINOMEscan binding assay, human RIPK1; conditions: equilibrium dissociation constant
human RIPK1, sequence (Q13546 whole entry): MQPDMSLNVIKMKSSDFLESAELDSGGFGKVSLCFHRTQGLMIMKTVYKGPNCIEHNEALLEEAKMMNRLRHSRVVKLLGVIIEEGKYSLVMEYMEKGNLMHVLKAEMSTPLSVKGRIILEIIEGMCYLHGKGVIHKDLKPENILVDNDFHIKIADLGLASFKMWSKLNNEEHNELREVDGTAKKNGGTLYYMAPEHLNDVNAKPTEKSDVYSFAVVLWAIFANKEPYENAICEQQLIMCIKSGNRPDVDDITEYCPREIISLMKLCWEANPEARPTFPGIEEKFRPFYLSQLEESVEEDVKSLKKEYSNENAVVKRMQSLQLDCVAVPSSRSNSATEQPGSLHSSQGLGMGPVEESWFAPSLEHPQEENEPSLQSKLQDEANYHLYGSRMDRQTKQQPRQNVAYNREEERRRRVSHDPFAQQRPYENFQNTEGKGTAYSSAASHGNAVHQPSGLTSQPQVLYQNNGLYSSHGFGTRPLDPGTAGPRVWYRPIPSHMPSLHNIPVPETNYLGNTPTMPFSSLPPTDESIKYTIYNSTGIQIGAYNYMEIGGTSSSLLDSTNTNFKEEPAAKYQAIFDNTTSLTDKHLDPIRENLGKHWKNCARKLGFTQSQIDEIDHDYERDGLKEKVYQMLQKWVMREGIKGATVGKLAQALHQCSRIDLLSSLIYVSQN
Method in brief: as §1

U937 cells = assay: Counter screen: U937 cell viability without TSQ cocktail (off-target effect); set-up: species or system human; conditions: Homo sapiens, U-937, compound without TSQ cocktail, read-out: Off-target effect (IC50 cell-based assay)
Method in brief: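 Off-target viability counter screen: compounds titrated 36 μM down 1:3 over 10 points (0.3% DMSO) on 20,000 U937 cells/well, no TNF/Smac mimetic/Q-VD-OPh added, 48 h incubation. ATP-based CellTiter-Glo luminescence, four-parameter logistic IC50.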

| Structure (SMILES) | Kd (human MLKL (full length)) | Kd (human RIPK3) | Kd (human RIPK1) | IC50 [1] | IC50 (U937 cells) |
| --- | --- | --- | --- | --- | --- |
| CCS(=O)(=O)Nc1ccc(-c2nn(C)c3c(-c4cnn(C5CCOCC5)c4)cnc(N)c23)cc1O[C@@H](C)c1ccc(F)cc1 [Compound 45, (S)-N-(4-(4-amino-1-methyl-7-(1-(tetrahydro-2H-pyran-4-yl)-1H-pyrazol-4-yl)-1H-pyrazolo[4,3-c]pyridin-3-yl)-2-(1-(4-fluorophenyl)ethoxy)phenyl)ethanesulfonamide] | 0.001 to 0.1 µM | > 10 µM | > 10 µM | 0.01 to 1 µM | > 10 µM |
| C[C@H](Oc1cc(-c2nn(C)c3c(-c4ccnc(C(C)(C)C)c4)cnc(N)c23)ccc1NS(=O)(=O)C(F)F)c1ccc(F)cc1 [Compound 48, (S)-N-(4-(4-amino-7-(2-(tert-butyl)pyridin-4-yl)-1-methyl-1H-pyrazolo[4,3-c]pyridin-3-yl)-2-(1-(4-fluorophenyl)ethoxy)phenyl)-1,1-difluoromethanesulfonamide] | 0.001 to 0.1 µM | > 10 µM | > 10 µM | 1 to 10 µM | > 10 µM |
| CC(C)n1nc(-c2ccc(NS(=O)(=O)C(F)F)c(O[C@@H](C)c3ccc(F)cc3)c2)c2c(N)ncc(-c3ccncc3)c21 [Compound 50, (S)-N-(4-(4-amino-1-isopropyl-7-(pyridin-4-yl)-1H-pyrazolo[4,3-c]pyridin-3-yl)-2-(1-(4-fluorophenyl)ethoxy)phenyl)-1,1-difluoromethanesulfonamide] | < 0.001 µM | > 10 µM | > 10 µM | 0.01 to 1 µM | > 10 µM |
| CC(C)n1nc(-c2ccc(NS(=O)(=O)C(F)F)c(O[C@@H](C)c3ccc(F)cc3)c2)c2c(N)ncc(-c3cnn(C4CCOCC4)c3)c21 [Compound 51, (S)-N-(4-(4-amino-1-isopropyl-7-(1-(tetrahydro-2H-pyran-4-yl)-1H-pyrazol-4-yl)-1H-pyrazolo[4,3-c]pyridin-3-yl)-2-(1-(4-fluorophenyl)ethoxy)phenyl)-1,1-difluoromethanesulfonamide] | 0.001 to 0.1 µM | > 10 µM | > 10 µM | 0.01 to 1 µM | > 10 µM |
| CC(C)n1nc(-c2ccc(NS(=O)(=O)C(F)F)c(O[C@@H](C)c3ccc(F)cc3)c2)c2c(N)ncc(-c3cnn(C)c3)c21 [Compound 52, (S)-N-(4-(4-amino-1-isopropyl-7-(1-methyl-1H-pyrazol-4-yl)-1H-pyrazolo[4,3-c]pyridin-3-yl)-2-(1-(4-fluorophenyl)ethoxy)phenyl)-1,1-difluoromethanesulfonamide] | 0.001 to 0.1 µM | > 10 µM | > 10 µM | 0.01 to 1 µM | > 10 µM |
| C[C@H](Oc1cc(-c2nn(C)c3c(C4=CCCN(C)C4)cnc(N)c23)ccc1NS(=O)(=O)C(F)F)c1ccc(F)cc1 [Compound 55, (S)—N-(4-(4-amino-1-methyl-7-(1-methyl-1,2,5,6-tetrahydropyridin-3-yl)-1H-pyrazolo[4,3-c]pyridin-3-yl)-2-(1-(4-fluorophenyl)ethoxy)phenyl)-1,1-difluoromethanesulfonamide] | < 0.001 µM | > 10 µM | > 10 µM | 1 to 10 µM | > 10 µM |
| CC#Cc1cnc(N)c2c(-c3ccc(NS(=O)(=O)C(F)F)c(O[C@@H](C)c4ccc(F)cc4)c3)nn(C)c12 [Compound 56, (S)-N-(4-(4-amino-1-methyl-7-(prop-1-yn-1-yl)-1H-pyrazolo[4,3-c]pyridin-3-yl)-2-(1-(4-fluorophenyl)ethoxy)phenyl)-1,1-difluoromethanesulfonamide] | < 0.001 µM | > 10 µM | > 10 µM | 0.01 to 1 µM | > 10 µM |
| C[C@H](Oc1cc(-c2nn(C)c3c(-c4cnn(C5CC6CCC(C5)N6C)c4)cnc(N)c23)ccc1NS(=O)(=O)C(F)F)c1ccc(F)cc1 (stereo partly drawn) [Compound 73, N-(4-(4-amino-1-methyl-7-(1-(8-methyl-8-azabicyclo[3.2.1]octan-3-yl)-1H-pyrazol-4-yl)-1H-pyrazolo[4,3-c]pyridin-3-yl)-2-((S)-1-(4-fluorophenyl)ethoxy)phenyl)-1,1-difluoromethanesulfonamide] | < 0.001 µM | > 10 µM | > 10 µM | 0.01 to 1 µM | > 10 µM |

The next lines start with results.

| Kd (human MLKL (full length)) | Kd (human RIPK3) | Kd (human RIPK1) | Structure (SMILES) | IC50 [1] | IC50 (U937 cells) |
| --- | --- | --- | --- | --- | --- |
| 0.001 to 0.1 µM | > 10 µM | > 10 µM | C[C@H](Oc1cc(-c2nn(C)c3c(-c4ccnc(C(F)F)c4)cnc(N)c23)ccc1NS(=O)(=O)C(F)F)c1ccc(F)cc1 [Compound 57, (S)-N-(4-(4-amino-7-(2-(difluoromethyl)pyridin-4-yl)-1-methyl-1H-pyrazolo[4,3-c]pyridin-3-yl)-2-(1-(4-fluorophenyl)ethoxy)phenyl)-1,1-difluoromethanesulfonamide] | 0.01 to 1 µM | > 10 µM |
| < 0.001 µM | > 10 µM | > 10 µM | C[C@H](Oc1cc(-c2nn(C)c3c(C#CC4CCOCC4)cnc(N)c23)ccc1NS(=O)(=O)C(F)F)c1ccc(F)cc1 [Compound 58, (S)-N-(4-(4-amino-1-methyl-7-((tetrahydro-2H-pyran-4-yl)ethynyl)-1H-pyrazolo[4,3-c]pyridin-3-yl)-2-(1-(4-fluorophenyl)ethoxy)phenyl)-1,1-difluoromethanesulfonamide] | 0.01 to 1 µM | > 10 µM |
| < 0.001 µM | > 10 µM | > 10 µM | C[C@H](Oc1cc(-c2nn(C)c3c(-c4cnn(C5CCNCC5)c4)cnc(N)c23)ccc1NS(=O)(=O)C(F)F)c1ccc(F)cc1 [Compound 59, (S)-N-(4-(4-amino-1-methyl-7-(1-(piperidin-4-yl)-1H-pyrazol-4-yl)-1H-pyrazolo[4,3-c]pyridin-3-yl)-2-(1-(4-fluorophenyl)ethoxy)phenyl)-1,1-difluoromethanesulfonamide] | 0.01 to 1 µM | > 10 µM |
| < 0.001 µM | > 10 µM | > 10 µM | C[C@H](Oc1cc(-c2nn(C)c3c(-c4cnn(C5CCCNCC5)c4)cnc(N)c23)ccc1NS(=O)(=O)C(F)F)c1ccc(F)cc1 (stereo partly drawn) [Compound 74, N-(4-(4-amino-7-(1-(azepan-4-yl)-1H-pyrazol-4-yl)-1-methyl-1H-pyrazolo[4,3-c]pyridin-3-yl)-2-((S)-1-(4-fluorophenyl)ethoxy)phenyl)-1,1-difluoromethanesulfonamide] | 0.01 to 1 µM | > 10 µM |
| < 0.001 µM | > 10 µM | > 10 µM | C[C@H](Oc1cc(-c2nn(C)c3c(-c4cnn(CCN5CC(C)(C)C5)c4)cnc(N)c23)ccc1NS(=O)(=O)C(F)F)c1ccc(F)cc1 [Compound 75, (S)-N-(4-(4-amino-7-(1-(2-(3,3-dimethylazetidin-1-yl)ethyl)-1H-pyrazol-4-yl)-1-methyl-1H-pyrazolo[4,3-c]pyridin-3-yl)-2-(1-(4-fluorophenyl)ethoxy)phenyl)-1,1-difluoromethanesulfonamide] | < 0.01 µM | > 10 µM |
| < 0.001 µM | > 10 µM | > 10 µM | CC(C)N1CC(n2cc(-c3cnc(N)c4c(-c5ccc(NS(=O)(=O)C(F)F)c(O[C@@H](C)c6ccc(F)cc6)c5)nn(C)c34)cn2)C1 [Compound 76, (S)-N-(4-(4-amino-7-(1-(1-isopropylazetidin-3-yl)-1H-pyrazol-4-yl)-1-methyl-1H-pyrazolo[4,3-c]pyridin-3-yl)-2-(1-(4-fluorophenyl)ethoxy)phenyl)-1,1-difluoromethanesulfonamide] | < 0.01 µM | > 10 µM |
| < 0.001 µM | > 10 µM | > 10 µM | C[C@H](Oc1cc(-c2nn(C)c3c(-c4cnn(C5CN(CC(F)(F)F)C5)c4)cnc(N)c23)ccc1NS(=O)(=O)C(F)F)c1ccc(F)cc1 [Compound 77, (S)-N-(4-(4-amino-1-methyl-7-(1-(1-(2,2,2-trifluoroethyl)azetidin-3-yl)-1H-pyrazol-4-yl)-1H-pyrazolo[4,3-c]pyridin-3-yl)-2-(1-(4-fluorophenyl)ethoxy)phenyl)-1,1-difluoromethanesulfonamide] | < 0.01 µM | > 10 µM |
| < 0.001 µM | > 10 µM | > 10 µM | C[C@H](Oc1cc(-c2nn(C)c3c(-c4cnn(C5CC6(CNC6)C5)c4)cnc(N)c23)ccc1NS(=O)(=O)C(F)F)c1ccc(F)cc1 [Compound 78, (S)-N-(4-(7-(1-(2-azaspiro[3.3]heptan-6-yl)-1H-pyrazol-4-yl)-4-amino-1-methyl-1H-pyrazolo[4,3-c]pyridin-3-yl)-2-(1-(4-fluorophenyl)ethoxy)phenyl)-1,1-difluoromethanesulfonamide] | 0.01 to 1 µM | > 10 µM |
| < 0.001 µM | > 10 µM | > 10 µM | CNCCn1cc(-c2cnc(N)c3c(-c4ccc(NS(=O)(=O)C(F)F)c(O[C@@H](C)c5ccc(F)cc5)c4)nn(C)c23)cn1 [Compound 82, (S)-N-(4-(4-amino-1-methyl-7-(1-(2-(methylamino)ethyl)-1H-pyrazol-4-yl)-1H-pyrazolo[4,3-c]pyridin-3-yl)-2-(1-(4-fluorophenyl)ethoxy)phenyl)-1,1-difluoromethanesulfonamide] | 0.01 to 1 µM | > 10 µM |
